# According to patent US20160038526A1, “TREATMENT OF PROSTATE CANCER” (THOMAS JEFFERSON UNIVERSITY, priority 2012, published 2016):
# Columns and labels:
# Stat3 = Stat3 (Homo sapiens, UniProt P40763); experiment: IL-6-induced nuclear translocation of Stat3 in DU145 cells (immunofluorescence); format: cell-based; design: endogenous in cells; host or cells: DU145; settings: 2 hours pretreatment, 10 nmol/L IL-6 30 minutes
# Protocol: DU145 prostate cancer cells were pretreated with N6BAP or vehicle (DMSO) for 2 hours and then stimulated with 10 nmol/L IL-6 for 30 minutes. Cells were fixed with 100% methanol for 15 min and subsequently permeabilized with 0.1% Triton X-100 in PBS (pH 7.4). After blocking with 2% bovine serum albumin in PBS, cells were incubated with an antibody specific for Stat3 at 4° C. for 2 hours. Cells were then washed with PBS and incubated with FITC-conjugated secondary antibody (Jackson ImmunoResearch) at room temperature for 1 hour. The images were taken by using an inverted fluorescence microscopy (Carl Zeiss).
# Stat5a = target: T1, Stat5a (Homo sapiens, UniProt P42229); experiment: Stat5 dimerization assay (FLAG-/MYC-tagged Stat5a co-immunoprecipitation) in PC-3 cells; format: cell-based; design: expressed in transfected cells; host or cells: PC-3; settings: 2 hours pretreatment, hPrl 10 nM 30 minutes
# T1 sequence (P42229 1-794): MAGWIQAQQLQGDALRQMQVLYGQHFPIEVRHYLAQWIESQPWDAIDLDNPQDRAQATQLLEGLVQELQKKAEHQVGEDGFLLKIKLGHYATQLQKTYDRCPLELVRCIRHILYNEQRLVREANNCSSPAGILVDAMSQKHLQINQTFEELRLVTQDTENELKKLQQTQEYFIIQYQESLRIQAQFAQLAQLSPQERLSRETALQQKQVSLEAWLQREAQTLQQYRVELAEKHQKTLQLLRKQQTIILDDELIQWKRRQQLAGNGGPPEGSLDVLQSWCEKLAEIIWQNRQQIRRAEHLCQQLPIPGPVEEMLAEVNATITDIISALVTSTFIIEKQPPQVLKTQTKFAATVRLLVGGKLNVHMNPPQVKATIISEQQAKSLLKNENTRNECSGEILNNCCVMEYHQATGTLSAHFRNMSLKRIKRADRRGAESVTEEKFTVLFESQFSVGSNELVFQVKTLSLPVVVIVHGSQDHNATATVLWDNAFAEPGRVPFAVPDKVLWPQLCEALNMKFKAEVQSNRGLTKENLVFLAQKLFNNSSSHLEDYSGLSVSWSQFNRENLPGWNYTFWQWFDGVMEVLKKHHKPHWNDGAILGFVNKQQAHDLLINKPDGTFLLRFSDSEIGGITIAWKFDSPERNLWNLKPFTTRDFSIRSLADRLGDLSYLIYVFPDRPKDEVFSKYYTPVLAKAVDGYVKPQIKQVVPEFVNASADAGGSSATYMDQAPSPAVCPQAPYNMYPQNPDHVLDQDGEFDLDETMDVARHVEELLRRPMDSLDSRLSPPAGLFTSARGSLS
# Protocol: FLAG-tagged Stat5a and MYC-tagged Stat5a were generated as follows. Plasmid pCMV3-FLAG-Stat5a, pCMV3-MYC-Stat5a and pPrlR were co-transfected using FuGENE6 (Roche) into PC-3 cells (2 μg of each plasmid per 1×10^7 cells). The cells were starved for 20 hours, pretreated with N6BAP for 2 hours, then stimulated with hPrl (10 nM) in RPMI 1640 without serum for 30 minutes. The cell lysates were immunoprecipitated with 25 μl anti-FLAG M2 […] affinity gel (2 μg/ml, Sigma), anti-MYC pAb (1 μg/ml, Upstate) or normal rabbit serum (NRS). The primary antibodies were used in the immunoblottings at the following concentrations: anti-FLAG pAb (1:1000; Stratagene), anti-MYC mAb (1:1000; Sigma), anti-Stat5a/b mAb (1:250) (Transduction Laboratories) detected by horseradish peroxidase-conjugated secondary antibodies.
# Lanes 1, 2, 4, 6, 8, 10, 12, 14 and 16 represent cells stimulated with human prolactin (Prl) for 30 minutes which induces dimerization of Stat5. Two hours prior to Prl-stimulation, the cells had been treated with DMSO (lanes 1-4), the control compound C5 (lanes 5 and 6) or N6BAP (lanes 7-16) to test whether the Stat5a/b-inhibitor compound, N6BAP, would be able to inhibit dimerization of Stat5. […] It should be noted the drug effect in this study was not due to cell apoptosis induction, as the treatment time was only 2 hours. […]
# Stat5a/b = experiment: Clinical prostate cancers ex vivo in explant organ cultures: nuclear Stat5a/b immunohistochemistry; format: cell-based, human; settings: 7 days, N6BAP 5, 10, 25, 50 and 100 μM; C5 100 m
# Protocol: The specimens comprised de-identified excess tissue obtained after the completion of pathology diagnosis. A zero-sample prior to organ culture was formalin-fixed for each individual prostate cancer for the analysis of the nuclear Stat5a/b status. The prostate organ cultures were performed as described earlier (Ahonen et al., Endocrinology (2002), 143:228-238). Briefly, prostate cancer tissue was cut into approximately 1 mm^3 pieces in a plain culture medium and transferred onto lens papers lying on stainless steel grids in petri dishes. The medium was phenol-free medium 199 with Earle's salts (Sigma) containing dialyzed 5% fetal calf serum, G-penicillin (100 IU/ml), streptomycin sulfate ([…]), and glutamine (100 μg/ml). […] Tissue explants were cultured in a medium containing the N6BAP or control compound C5 at indicated concentrations (C5: […]; N6BAP: 5, 10, 25, 50 and 100 μM) 7 days, after which the explants were fixed in formalin and analyzed for Stat5a/b activation and viability of prostate cancer epithelial compartment. Viability of the epithelial cells in the prostate cancer explants at the end of the cultures were scored by counting the viable epithelial cells per explant.
# Nuclear Stat5a/b indexes were determined by counting the Stat5-positive cells per 500 epithelial cells in the cultured explants in each treatment group.
# Sequence of Stat3 (P40763 whole entry, species assumed): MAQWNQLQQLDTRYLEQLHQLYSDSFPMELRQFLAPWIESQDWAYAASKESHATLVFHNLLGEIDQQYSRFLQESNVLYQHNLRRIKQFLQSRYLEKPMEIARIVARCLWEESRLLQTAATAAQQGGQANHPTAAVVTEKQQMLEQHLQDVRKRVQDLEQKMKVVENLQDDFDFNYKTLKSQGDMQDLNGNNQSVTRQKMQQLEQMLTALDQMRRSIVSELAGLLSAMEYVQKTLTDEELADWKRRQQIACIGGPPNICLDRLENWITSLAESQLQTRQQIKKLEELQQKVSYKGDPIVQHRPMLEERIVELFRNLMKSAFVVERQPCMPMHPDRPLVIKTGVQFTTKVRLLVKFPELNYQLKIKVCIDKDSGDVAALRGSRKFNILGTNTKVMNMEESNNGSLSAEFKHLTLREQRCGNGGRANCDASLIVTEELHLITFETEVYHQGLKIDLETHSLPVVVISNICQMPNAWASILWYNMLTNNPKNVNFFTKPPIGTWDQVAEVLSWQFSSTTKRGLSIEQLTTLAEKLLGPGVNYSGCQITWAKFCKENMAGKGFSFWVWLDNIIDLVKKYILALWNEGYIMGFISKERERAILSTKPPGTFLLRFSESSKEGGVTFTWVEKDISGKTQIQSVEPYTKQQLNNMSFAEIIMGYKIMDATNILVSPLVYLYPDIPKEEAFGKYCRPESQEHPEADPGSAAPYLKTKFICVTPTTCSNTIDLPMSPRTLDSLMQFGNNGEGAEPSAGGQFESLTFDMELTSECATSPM
SMILES,nuclear translocation of IL-6-induced Stat3 (Stat3),dimerization of Stat5a (Stat5a),nuclear Stat5 expression in explant organ cultures (Stat5a/b)
"Cc1cc(Nc2nc(N[C@@H](C)c3ncc(F)cn3)ncc2Cl)n[nH]1 [AZD1480, reference compound]",blocks nuclear translocation of IL-6-induced Stat3 efficiently,,
"Nc1nc(SCc2cccnc2)[nH]c(=O)c1NC(=O)c1ccco1 [C5, reference compound]",,did not inhibit dimerization of Stat5a,Intensive positive immunostaining for nuclear Stat5
